Among the data in patent publication US8557839B2, “Fused ring azadecalin glucocorticoid receptor modulators” (Corcept Therapeutics, Inc., priority 2004, dated 2013) are Ki values, retold here.

Assay [1] addresses T1, glucocorticoid receptors (Homo sapiens, UniProt P04150).
T1 sequence (P04150 1-777): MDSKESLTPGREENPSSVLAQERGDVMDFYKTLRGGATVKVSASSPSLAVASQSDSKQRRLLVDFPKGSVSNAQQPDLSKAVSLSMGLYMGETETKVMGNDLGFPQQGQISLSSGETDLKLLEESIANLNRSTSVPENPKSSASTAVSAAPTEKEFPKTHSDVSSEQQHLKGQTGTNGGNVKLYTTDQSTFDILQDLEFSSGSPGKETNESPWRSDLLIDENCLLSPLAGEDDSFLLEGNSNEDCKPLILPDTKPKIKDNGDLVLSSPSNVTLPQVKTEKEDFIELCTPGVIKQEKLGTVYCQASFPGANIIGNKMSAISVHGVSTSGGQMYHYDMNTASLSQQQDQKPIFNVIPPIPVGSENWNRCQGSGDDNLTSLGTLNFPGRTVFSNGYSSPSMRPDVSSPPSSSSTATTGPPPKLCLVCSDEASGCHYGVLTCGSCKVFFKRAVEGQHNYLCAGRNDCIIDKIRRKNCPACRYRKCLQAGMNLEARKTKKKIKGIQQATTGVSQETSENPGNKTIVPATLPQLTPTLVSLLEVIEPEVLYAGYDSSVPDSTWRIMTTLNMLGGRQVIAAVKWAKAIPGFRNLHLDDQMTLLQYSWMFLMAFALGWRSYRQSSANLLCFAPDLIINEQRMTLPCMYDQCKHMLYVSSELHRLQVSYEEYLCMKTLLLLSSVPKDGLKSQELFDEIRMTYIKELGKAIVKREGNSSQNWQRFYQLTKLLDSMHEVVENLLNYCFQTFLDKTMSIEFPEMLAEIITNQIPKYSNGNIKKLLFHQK
As to the kind of experiment: GR functional assay using SW1353/MMTV-5 cells (dexamethasone-induced luciferase). Details: contains endogenous glucocorticoid receptors; endogenous in cells; host or cells: SW1353/MMTV-5 (human chondrosarcoma, stably carrying the pMAMneo-Luc reporter). The settings on record: read-out: GR Functional. It is filed as cell-based. The procedure:
SW1353/MMTV-5 is an adherent human chondrosarcoma cell line that contains endogenous glucocorticoid receptors. It was transfected with a plasmid (pMAMneo-Luc) encoding firefly luciferase located behind a glucocorticoid-responsive element (GRE) derived from a viral promoter (long terminal repeat of mouse mammary tumor virus). A stable cell line SW1353/MMTV-5 was selected with geneticin, which was required to maintain this plasmid.
SW1353/MMTV-5 cells were distributed in 96-well plates and incubated in medium (without geneticin) for 24 hrs (in the absence of CO2).

Assay [2] deals with T1, glucocorticoid receptors. Put plainly: Glucocorticoid receptor binding displacement assay with 3H-dexamethasone. Further details: This GR was a full-length steroid hormone receptor; host or cells: recombinant baculovirus-infected insect cells. The settings on record: Ki from IC50 by Cheng-Prusoff; 2.5 nM 3H-dexamethasone; read-out: GR Binding. On the procedure: The source of the receptor was recombinant baculovirus-infected insect cells. This GR was a full-length steroid hormone receptor likely to be associated with heat-shock and other endogenous proteins.
For the Primary Screen, test compounds were tested at 1 μM in duplicate. These compounds were diluted from 10 mM stock in 100% DMSO. After dilution to 100 μM, 5 μl were added to 245 μl assay buffer to obtained 2 μM compound and 2% DMSO.
For the IC50 determinations, test compounds were tested at 6 concentrations in duplicate (concentration range depends on % inhibition binding that was obtained in the Primary Screen). Test compounds were diluted from 10 mM stock in 100% DMSO. The tested solutions were prepared at 2× final assay concentration in 2% DMSO/assay buffer.
All reagents and the assay plate were kept on ice during the addition of reagents. […] After the additions, the incubation mixture was mixed and incubated for 2.5 hrs at 4° C.
After 2.5 hrs incubation, unbound counts were removed with dextran coated charcoal (DCC) as follows: 25 μl of DCC solution (10% DCC in assay buffer) was added to all wells and mixed (total volume 225 μl). The plate was centrifuged at 4000 rpm for 10 minutes at 4° C. 75 μl of the supernatants (i.e.⅓ of total volume) was carefully pipetted into an optiplate. 200 μl of scintillation cocktail were added (Microscint-40, Packard Bioscience. B.V.). The plate was vigorously shaken for approx. 10 minutes and counted on Topcount.
The IC50 values were converted to Ki (the inhibition constant) using the Cheng-Prusoff equation.
Reagents: Assay buffer: 10 mM potassium phosphate buffer pH 7.6 containing 5 mM DTT, 10 mM sodium molybdate, 100 μM EDTA and 0.1% BSA.

[3] abbreviates: SW1353/MMTV-5 cells, antagonism of 50 nM dexamethasone, luciferase.

For the compound `CN1CCOc2cc(S(=O)(=O)N3CCC4=Cc5[nH]ncc5CC4(Cc4ccccc4)C3)ccc21` (stereo not shown) [drawing 231], the results for the Ki at glucocorticoid receptors [1] (setting [3]) and on glucocorticoid receptors [2] were greater than 100 nM and less than 10 nM, respectively.

As to `CC(C)(C)c1ccc(S(=O)(=O)N2CCC3=Cc4c(cnn4-c4ccc(F)cc4)C[C@]3(COCCC#N)C2)cc1`, the Ki at glucocorticoid receptors [1] and on glucocorticoid receptors [2] was less than 10 nM in each case.

On to `Cn1cc2c(n1)C=C1CCN(S(=O)(=O)c3ccc(C(C)(C)C)cc3)CC1(Cc1ccccc1)C2` (stereo not shown) [drawing 248], for which the Ki is greater than 100 nM at glucocorticoid receptors [1] (setting [3]) and less than 10 nM on glucocorticoid receptors [2].

For the compound `CC(C)(C)c1ccc(S(=O)(=O)N2CCC3=Cc4c(cnn4-c4ccc(S(N)(=O)=O)cc4)CC3(Cc3ccccc3)C2)cc1` (stereo not shown) [drawing 240], the Ki on glucocorticoid receptors [1] was greater than 100 nM; at glucocorticoid receptors [2], 10 to 100 nM.

For `COC(=O)[C@]12Cc3cnn(C(C)C)c3C=C1CCN(S(=O)(=O)c1ccc(C(C)(C)C)cc1)C2`, the Ki on glucocorticoid receptors [1] is greater than 100 nM; on glucocorticoid receptors [2], 10 to 100 nM.

For `CN(C)C(=O)[C@]12Cc3cnn(-c4ccc(F)cc4)c3C=C1CCN(S(=O)(=O)c1ccc(C(C)(C)C)cc1)C2`, the Ki at glucocorticoid receptors [1] was greater than 100 nM; on glucocorticoid receptors [2] it was 10 to 100 nM.

As to `CC(C)(C)c1ccc(S(=O)(=O)N2CCC3=Cc4c(cnn4-c4ccncc4)C[C@]3(C)C2)cc1`, the Ki at glucocorticoid receptors [1] is greater than 100 nM; on glucocorticoid receptors [2], less than 10 nM.

On to `COC[C@]12Cc3cnn(-c4ccc(F)cc4)c3C=C1CCN(S(=O)(=O)c1ccc(C(C)(C)C)cc1)C2`, for which the Ki at glucocorticoid receptors [1] and at glucocorticoid receptors [2] was less than 10 nM throughout.

As to `COC[C@]12Cc3cnn(-c4ccc(F)cc4)c3C=C1CCN(S(=O)(=O)N(C)C)C2`, the Ki at glucocorticoid receptors [1] is greater than 100 nM; at glucocorticoid receptors [2], 10 to 100 nM.

As to `CCCCS(=O)(=O)N1CCC2=Cc3c(cnn3-c3ccc(F)cc3)C[C@]2(CN2CCOCC2)C1`, the Ki at glucocorticoid receptors [1] is greater than 100 nM; at glucocorticoid receptors [2] it was 10 to 100 nM.

In the case of `CN(C)CC[C@]12Cc3cnn(-c4ccc(F)cc4)c3C=C1CCN(S(=O)(=O)c1ccc(C(C)(C)C)cc1)C2`, the Ki on glucocorticoid receptors [1] and at glucocorticoid receptors [2] was 10 to 100 nM throughout.

With `CC(C)(C)c1ccc(S(=O)(=O)N2CCC3=Cc4c(cnn4-c4ccc(F)cc4)C[C@]3(Cc3ccccc3)C2)cc1`, the Ki on glucocorticoid receptors [1] and at glucocorticoid receptors [2] was less than 10 nM in each case.

Turning to `CCNC(=O)[C@]12Cc3cnn(-c4ccc(F)cc4)c3C=C1CCN(S(=O)(=O)c1ccc(C(C)(C)C)cc1)C2`, the values for the Ki on glucocorticoid receptors [1] and at glucocorticoid receptors [2] were greater than 100 nM and less than 10 nM, respectively.

As for `O=S(=O)(c1ccc(F)cc1)N1CCC2=Cc3c(cnn3-c3ccc(F)cc3)CC2(Cc2ccc(F)cc2)C1` (stereo not shown), the Ki is 10 to 100 nM on glucocorticoid receptors [1] and less than 10 nM on glucocorticoid receptors [2].

On to `CN1CCN(S(=O)(=O)N2CCC3=Cc4c(cnn4-c4ccc(F)cc4)CC3(Cc3ccc(F)cc3)C2)CC1` (stereo not shown), for which the Ki at glucocorticoid receptors [1] was greater than 100 nM; on glucocorticoid receptors [2] it was 10 to 100 nM.

In the case of `CC(C)(C)c1ccc(S(=O)(=O)N2CCC3=Cc4[nH]ncc4CC3(Cc3ccccc3)C2)cc1` (stereo not shown) [drawing 229], the Ki at glucocorticoid receptors [1] (setting [3]) is 10 to 100 nM; on glucocorticoid receptors [2], less than 10 nM.

For `COc1ccc(S(=O)(=O)N2CCC3=Cc4c(cnn4-c4ccc(F)cc4)C[C@]3(CN3CCCCC3)C2)cc1`, the Ki on glucocorticoid receptors [1] and at glucocorticoid receptors [2] was 10 to 100 nM throughout.

Take `COCCOC[C@]12Cc3cnn(C)c3C=C1CCN(S(=O)(=O)c1ccc(C(C)(C)C)cc1)C2`: the Ki on glucocorticoid receptors [1] was greater than 100 nM; on glucocorticoid receptors [2], 10 to 100 nM.

With `CCCN1CCC2=Cc3c(cnn3-c3ccc(F)cc3)CC2(Cc2ccc(F)cc2)C1` (stereo not shown), the Ki on glucocorticoid receptors [1] was greater than 100 nM; at glucocorticoid receptors [2], 10 to 100 nM.

Take `CCCCn1ncc2c1C=C1CCN(S(=O)(=O)c3ccc(C(C)(C)C)cc3)C[C@@]1(CN1CCCCC1)C2`: the results for the Ki at glucocorticoid receptors [1] and at glucocorticoid receptors [2] were 10 to 100 nM and less than 10 nM, respectively.

As to `O=S(=O)(c1ccc(F)cc1)N1CCC2=Cc3c(cnn3-c3ccc(F)cc3)C[C@]2(CO)C1`, the Ki on glucocorticoid receptors [1] is greater than 100 nM; at glucocorticoid receptors [2] it was less than 10 nM.

`O=S(=O)(c1ccc(N2CCOCC2)nc1)N1CCC2=Cc3c(cnn3-c3ccc(F)cc3)CC2(Cc2ccc(F)cc2)C1` (stereo not shown): the Ki is 10 to 100 nM on glucocorticoid receptors [1] and less than 10 nM on glucocorticoid receptors [2].

With `Cn1cc2c(n1)C=C1CCN(S(=O)(=O)c3ccc(C(C)(C)C)cc3)CC1(Cc1ccccc1)C2` (stereo not shown) [drawing 232], the Ki on glucocorticoid receptors [1] was greater than 100 nM; at glucocorticoid receptors [2] it was less than 10 nM.
